Test results reported in patent US10093651B2, “Ghrelin O-acyl transferase inhibitors” (Eli Lilly and Company, priority 2015, dated 2018).
Each block holds one compound with its values, some of them ahead of it.

How the values were obtained:
human GOAT = human GOAT (Homo sapiens (Human), UniProt Q96T53); assay: In vitro cell free human GOAT enzymatic assay; assay type: biochemical; settings: purified GOAT enzyme, ELISA readout of acyl-ghrelin
Experimental: In Vitro Cell Free Human GOAT Enzymatic Assay
Human GOAT gene (Accession number: NM 001100916) is subcloned to pAN51 baculoviral expression vector. Baculovirus stock is prepared following the Bac-to-Bac Protocol provided by the vendor, Invitrogen, California, USA. Five mililiters of human GOAT baculoviral stock are added to 500 mL SDf cells in HyQ SFX-Insect™ media (HyClone catalog number SF130278.02) at the density of 1×10^6 cells per milliliter in a 2 L Erlenmeyer flask. The flask with human GOAT gene infected Sf9 cells is put on a plate shaker at 120 rpm at 28° C. for 48 hours. After 48 hours incubation, cells are centrifuged at 1,000×g for 10 min at 4° C. The cell pellets are collected and stored at −80° C. in a freezer until ready for further processing.
Preparation of Microsomal Membrane of GOAT Enzyme for the Enzymatic Assay:
One gram cell pellets are suspended in 9 mL chilled homogenization buffer (50 mM Tris-HCl, 250 mM sucrose, adjusted to pH 7.5 and sterile filtered through 0.2 μm Millipore filter). The cell suspension is transferred to a Dounce glass homogenizer. Cell pellets are homogenized with 40 strokes on ice. The homogenate is centrifuged at 3,000 rpm in a Beckman swing bucket rotor at 4° C. for 10 min to remove unbroken cells. The supernatant is collected and centrifuged at 40,000×g for 1 hour at 4° C. The resulting membrane pellet is suspended in the homogenization buffer using a Dounce glass homogenizer and stored at −20° C. in the freezer for the assay. For long term storage of the human GOAT enzyme membrane preparation, the suspended membrane is stored in a −80° C. freezer.
Human GOAT Enzymatic Assay Protocol:
Prepare test compounds in DMSO to make up a 0.2 mM stock solution. Serially dilute the stock solution in DMSO to obtain a ten-point dilution curve with final compound concentrations ranging from 10 μM to 0.5 nM in a 96-well round-bottom plate. Prepare enzyme and substrate solutions in assay buffer (0.02% TWEEN™-20 in 50 mM Tris, pH 7.5/250 mM sucrose/1 mg/mL BSA/10 mM EDTA). Add diluted compound (1 μL) to each well of row A to N of a corresponding low protein binding 384 well plate. Add human GOAT substrate mix (10 μL), consisting of human desacyl-ghrelin-biotin (CPC Scientific Inc., 6.0 μM final), octanoyl-coenzyme A (CoA) (Sigma, 60 μM final) and an AG specific antibody (WO 2006/091381)([…] final), to the compounds. Add GOAT-His/sf9 enzyme preparation, that has been prepared in assay buffer (9 μL), to each well of the plate containing substrate and test compounds resulting in a final concentration of 0.01 μg/mL to initiate the reaction. Incubate the mixture for 1 hour at RT on a gently rotating oscillator. Add 4M guanidine hydrochloride (20 μL) to all wells, mix, and incubate for 3 hours to stop the reaction.
Prepare ELISA plates (STREPTAVIDIN SPECTRAPLATE™ 384, Perkin Elmer) by blocking with 2% Heat-Inactivated FBS in PBS (40 μL) (Invitrogen) blocking buffer for 3 hours. Aspirate the blocking buffer from ELISA plate and add blocking buffer (23 μL) to columns 1-24, rows A-N. Reserve rows O and P for the acylghrelin standard curve. Add the reaction mix (2 μL) to the ELISA plates. Prepare a 10 point standard curve (biotin-labeled octanoyl-ghrelin) by serial 2× dilution in blocking buffer containing 0.2M Guanidine hydrochloride starting at 2.5 pM. Incubate the reaction mixture or biotin-labeled AG standard in the ELISA plate overnight at 4° C. […]

GOAT = GOAT (Mus musculus (Mouse), UniProt P0C7A3); assay: In vivo dose dependent 3 day BID study for GOAT inhibitor (plasma AG and UAG by ELISA); set-up: species or system male C57BL/6 mice; settings: mice, 3 days; for reduction in AG to total ghrelin ratio: compared to vehicle-treated control animals; for decrease of plasma AG / increase of UAG: vs vehicle; for AG (% of control) / AG/Total-ghrelin (% of vehicle control) / UAG (% of vehicle control) / increase of UAG: plasma
Experimental: Comparing the change in the ratio of AG to total ghrelin in the compound treated group and that of the vehicle treated group reflects the degree of GOAT enzyme inhibition in vivo, due to the dynamic processing of UAG to AG by the GOAT enzyme. In the in vivo pharmacodynamic studies herein, the levels of AG and UAG in plasma and stomach in the vehicle and compound treated groups are measured by ELISA specifically to these two analytes. The total ghrelin level of each sample is computed as the sum of AG and UAG by these ELISA measurements. The ratio of AG to total ghrelin is defined by the level of AG in each sample divided by the level of total ghrelin in the same sample. The levels of AG, UAG and ratio of AG to total ghrelin in the vehicle treated group is computed and set as 100%. The relative change of these parameters in the compound treated group is then computed to determine the effectiveness of the test compound.
In Vivo Dose Dependent 3 Day BID Study for GOAT Inhibitor:E
Purchase male C57BL/6 mice from Harlaan (Indianapolis, Ind.) at 9 weeks of age. House the mice individually in a temperature-controlled (24° C.) facility with a 12 hours light/dark cycle (lights on 2200 h), and allow free access to a standard rodent chow (diet 2014, Harlan) and water. Typically, use the mice when they are 10-13 weeks of age at the time of the study. On day 0 of the experiment, randomize the mice into treatment groups (N=7/group) so each group has similar mean body weights. On day 1 and day 2, treat the animals with vehicle (1% hydroxyethylcellulose, 0.25% TWEEN™ 80, 0.05% antifoam) or test compound prepared in the vehicle as suspension at various dosages by oral gavage at 7 am and 7 pm. On day 3, fast the animals, move them into clean cages and dose with vehicle or the test compound again at 8 am by oral gavage. That same day at 1 pm, sacrifice the animals by decapitation to collect blood. For details of blood collection and plasma treatments see Blood collection and Extraction of Ghrelin from Plasma section below.
Collect approximately 600 μL blood into a pre-weighed EDTA tube containing 600 μL (defined as Vpreservative) freshly-prepared preservative (4 mM PEFABLOC® [4-(2-aminoethyl) benzenesulfonyl fluoride hydrochloride], 72 mM NaCl, 58 mM NaF, 0.032 N hydrochloric acid, pH 3.0) and mix immediately. Weigh the tube again and keep on ice. To accurately determine the exact blood volume of each sample using this blood collection procedure, the weight of the blood for each mouse is computed using the following equation: Weight of Blood=(Weight of the tube containing Blood+preservative)−(Weight of the tube containing preservative) Blood volume (Vblood)=(Weight of blood)/1.06
Note, the density of rodent blood is assumed as 1.06 g/mL.
Within 15 minutes after the blood collection, samples are centrifuged at 5000 rpm at 4° C. for 8 min. Remove plasma (650 μL) to a 5 mL glass tube containing 1 N hydrochloric acid (65 μL), mix and keep on ice.
Ghrelin Extraction by SEP-PAK® Column:
AG and UAG are extracted from plasma using SEP-PAK®_C18 column to remove interference prior to performing the ELISA. The solid phase extraction of AG and UAG peptides by SEP-PAK®_C18 columns can be performed on a vacuum manifold (Waters Corp) or using a peristaltic pump. The sample SEP-PAK®_column extraction procedure is independently applied to the plasma sample obtained from each individual mouse. The general extraction protocol is described as follows.
All solutions used for the entire protocol of the SEP-PAK® column extraction should be at ice cold condition. Wet SEP-PAK®_columns (WAT054960, Waters Corp, Milford Mass.) with 99.9% ACN/0.1% TFA (1 mL of solution of 100 mL ACN/0.1 mL TFA). […] Once liquid is removed from the column, stop the pressure. Equilibrate the columns with 3% ACN/0.1% TFA (I mL of 97 mL water, 3 mL ACN, 0.1 mL TFA). […] Dilute approximately 650 μL acidified plasma (defined as Vplasma added to column) to 1.4 mL ice cold 0.1% TFA. […]

human GOAT, sequence (Q96T53 whole entry): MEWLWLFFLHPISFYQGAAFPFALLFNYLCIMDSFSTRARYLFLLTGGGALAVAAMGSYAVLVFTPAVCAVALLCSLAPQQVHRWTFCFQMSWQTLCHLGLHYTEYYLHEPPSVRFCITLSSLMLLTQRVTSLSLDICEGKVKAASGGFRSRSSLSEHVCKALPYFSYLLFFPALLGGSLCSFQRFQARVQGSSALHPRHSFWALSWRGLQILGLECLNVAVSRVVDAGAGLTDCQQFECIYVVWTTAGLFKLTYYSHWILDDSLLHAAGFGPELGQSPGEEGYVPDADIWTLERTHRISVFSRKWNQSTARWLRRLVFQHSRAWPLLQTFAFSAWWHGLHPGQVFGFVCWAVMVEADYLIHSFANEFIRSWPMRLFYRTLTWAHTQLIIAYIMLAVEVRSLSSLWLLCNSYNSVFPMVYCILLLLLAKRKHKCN
GOAT, sequence (P0C7A3 whole entry): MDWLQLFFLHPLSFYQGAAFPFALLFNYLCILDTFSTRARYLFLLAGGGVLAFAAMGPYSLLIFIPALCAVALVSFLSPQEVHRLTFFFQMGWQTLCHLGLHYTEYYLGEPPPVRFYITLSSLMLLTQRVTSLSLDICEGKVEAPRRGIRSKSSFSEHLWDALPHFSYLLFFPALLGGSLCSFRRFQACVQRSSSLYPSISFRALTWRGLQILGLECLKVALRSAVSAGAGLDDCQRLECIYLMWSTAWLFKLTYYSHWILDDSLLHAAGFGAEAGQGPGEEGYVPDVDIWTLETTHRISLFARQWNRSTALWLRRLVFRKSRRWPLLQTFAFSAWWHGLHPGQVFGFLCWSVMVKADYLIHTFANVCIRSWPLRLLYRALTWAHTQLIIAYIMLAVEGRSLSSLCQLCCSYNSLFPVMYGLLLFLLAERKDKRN

IC50 (human GOAT): 69.5 ± 0.6 nM | reduction in AG to total ghrelin ratio (GOAT; 0.1 mg/kg): 57% | decrease of plasma AG (GOAT; 0.1 mg/kg): 40% | reduction in AG to total ghrelin ratio (GOAT; 0.3 mg/kg): 62% | decrease of plasma AG (GOAT; 0.3 mg/kg): 60% | reduction in AG to total ghrelin ratio (GOAT; 1 mg/kg): 79% | decrease of plasma AG (GOAT; 1 mg/kg): 56% | reduction in AG to total ghrelin ratio (GOAT; 3 mg/kg): 82% | decrease of plasma AG (GOAT; 3 mg/kg): 63% | reduction in AG to total ghrelin ratio (GOAT; 10 mg/kg): 82% | decrease of plasma AG (GOAT; 10 mg/kg): 63% | AG (% of control) (GOAT; 0.1 mg/kg oral gavage BID): 60 ± 8 (n = 7) % of control | AG/Total-ghrelin (% of vehicle control) (GOAT; 0.1 mg/kg oral gavage BID): 43 ± 3 (n = 7) % of vehicle control | UAG (% of vehicle control) (GOAT; 0.1 mg/kg oral gavage BID): 210 ± 43 (n = 7) % of vehicle control | increase of UAG (GOAT; 0.1 mg/kg): 2.10 fold | AG (% of control) (GOAT; 0.3 mg/kg oral gavage BID): 40 ± 10 (n = 7) % of control | AG/Total-ghrelin (% of vehicle control) (GOAT; 0.3 mg/kg oral gavage BID): 28 ± 1 (n = 7) % of vehicle control | UAG (% of vehicle control) (GOAT; 0.3 mg/kg oral gavage BID): 222 ± 54 (n = 7) % of vehicle control | increase of UAG (GOAT; 0.3 mg/kg): 2.22 fold | AG (% of control) (GOAT; 1 mg/kg oral gavage BID): 44 ± 6 (n = 14) % of control | AG/Total-ghrelin (% of vehicle control) (GOAT; 1 mg/kg oral gavage BID): 21 ± 1 (n = 14) % of vehicle control | UAG (% of vehicle control) (GOAT; 1 mg/kg oral gavage BID): 357 ± 30 (n = 14) % of vehicle control | increase of UAG (GOAT; 1 mg/kg): 3.57 fold | AG (% of control) (GOAT; 3 mg/kg oral gavage BID): 37 ± 9.6 (n = 14) % of control | AG/Total-ghrelin (% of vehicle control) (GOAT; 3 mg/kg oral gavage BID): 18 ± 5 (n = 14) % of vehicle control | UAG (% of vehicle control) (GOAT; 3 mg/kg oral gavage BID): 349 ± 41 (n = 14) % of vehicle control | increase of UAG (GOAT; 3 mg/kg): 3.49 fold | AG (% of control) (GOAT; 10 mg/kg oral gavage BID): 37 ± 9.9 (n = 7) % of control | AG/Total-ghrelin (% of vehicle control) (GOAT; 10 mg/kg oral gavage BID): 18 ± 3 (n = 7) % of vehicle control | UAG (% of vehicle control) (GOAT; 10 mg/kg oral gavage BID): 378 ± 59 (n = 7) % of vehicle control | increase of UAG (GOAT; 10 mg/kg): 3.78 fold
SMILES: Cc1nc(C(F)(F)F)nc(N)c1CCC1CCN(C(=O)[C@H](C)NC(=O)c2ccnn2C)CC1 [Example 2, N-[(1 S)-2-[4-[2-[4-Amino-6-methyl-2-(trifluoromethyl)pyrimidin-5-yl]ethyl]-1-piperidyl]-1-methyl-2-oxo-ethyl]-2-methyl-pyrazole-3-carboxamide]

IC50 (human GOAT): 276 nM
SMILES: Cc1nc(C(F)(F)F)nc(N)c1CCC1CCN(C(=O)[C@H](C)NC(=O)CO)CC1 [Example 18, N-[(1S)-2-[4-[2-[4-Amino-6-methyl-2-(trifluoromethyl)pyrimidin-5-yl]ethyl]-1-piperidyl]-1-methyl-2-oxo-ethyl]-2-hydroxy-acetamide]

IC50 (human GOAT): 420 nM
SMILES: COc1ccccc1C(=O)N[C@@H](C)C(=O)N1CCC(CCc2c(C)nc(C(F)(F)F)nc2N)CC1 [Example 17, N-[(1S)-2-[4-[2-[4-Amino-6-methyl-2-(trifluoromethyl)pyrimidin-5-yl]ethyl]-1-piperidyl]-1-methyl-2-oxo-ethyl]-2-methoxy-benzamide]

IC50 (human GOAT): 615 nM
SMILES: COC(=O)N[C@@H](C)C(=O)N1CCC(CCc2c(C)nc(C(F)(F)F)nc2N)CC1 [Example 20, Methyl-[(1S)-2-[4-[2-[4-amino-6-methyl-2-(trifluoromethyl)pyrimidin-5-yl]ethyl]-1-piperidyl]-1-methyl-2-oxo-ethyl]carbamate]

IC50 (human GOAT): 55.7 nM
SMILES: Cc1nc(C(F)(F)F)nc(N)c1CCC1CCN(C(=O)[C@H](C)NC(=O)c2nccnc2Cl)CC1 [Example 15, N-[(1S)-2-[4-[2-[4-Amino-6-methyl-2-(trifluoromethyl)pyrimidin-5-yl]ethyl]-1-piperidyl]-1-methyl-2-oxo-ethyl]-3-chloro-pyrazine-2-carboxamide]
